Measured values from patent US20060040931A1, “Benzomorpholine derivatives” (Toray Industries, Inc., priority 2002, published 2006).

Experiments:
platelet aggregation = assay: Monkey platelet aggregation inhibitory test after oral administration (ex vivo, ADP-induced, PRP); type: in vivo; details: male crab-eating monkeys, blood before and 30, 60, 120, 180 min after administration, 10 μM ADP, FIG. 1
Protocol: Male crab-eating monkeys (4 to 6 kg) were retained in monkey chairs. After 30 minutes of acclimatization, the compound of Example 1-13 was orally administered to the monkeys using catheters (16 Fr).
Blood was collected via saphenous veins before, and 30, 60, 120 and 180 minutes after administration of drug solutions using a syringe that had previously contained a 3.8% sodium citrate solution in a volume that was one-tenth of that of collected blood.
The collected blood was centrifuged at 1000 rpm for 10 minutes. Upper portions of the resultants were collected as platelet rich plasma (PRP). PRP was apportioned into small test tubes, and 10 μM of ADP was added thereto to induce platelet aggregation. The degree of platelet aggregation was measured as a change in turbidity using an aggregometer (Hematracer 1, Nikobioscience).

[1] = test system: human platelet aggregation; assay: Human platelet aggregation inhibitory test (ADP-induced, platelet rich plasma); type: cell-based; details: human PRP, 5 μM ADP, compound added 1 minute before ADP, turbidity (aggregometer), read-out: Platelet Aggregation Inhibitory Effect IC50
Protocol: Blood collected from human median cubital vein was centrifuged at 800 rpm for 10 minutes. Upper portion of the resultant was collected as platelet rich plasma (PRP). PRP was dispensed to small test tubes, and 5 μM of ADP was added thereto to induce platelet aggregation. The degree of platelet aggregation was measured as a change in turbidity using an aggregometer (Hematracer 1, Nikobioscience). Each compound was added 1 minute before ADP addition, and calculation was carried out using as an IC50 value a concentration that inhibits aggregation by 50%.

With `O=C(O)COc1cccc2c1OCCN2CCN(C(=O)c1ccccc1)c1ccc(Br)cc1` [Example 1-13] the “inhibitory effect of platelet aggregation after oral administration” value (platelet aggregation) was “strong inhibitory effect of platelet aggregation”.
In the case of `O=C(O)COc1cccc2c1OCCN2CCN(C(=O)c1ccccc1)c1ccc(Cl)cc1` [Example 1-14], the IC50 [1] is reported as 13 nM.
`Cc1ccc(N(CCN2CCOc3c(OCC(=O)O)cccc32)C(=O)c2ccccc2)cc1` [Example 1-16] gave an IC50 [1] of 5.3 nM.
In the case of `Cc1ccc(C(=O)N(CCN2CCOc3c(OCC(=O)O)cccc32)c2ccc(C)cc2)cc1` [Example 1-28], the IC50 [1] is reported as 5.9 nM.
Work on `CSc1ccc(N(CCN2CCOc3c(OCC(=O)O)cccc32)C(=O)c2ccccc2)cc1` [Example 1-40] yielded an IC50 [1] of 14 nM.
For `O=C(O)COc1cccc2c1OCCN2CCN(C(=O)c1ccccc1)c1ccc(Cl)cc1Cl` [Example 1-49], the IC50 [1] was 18 nM.
For `O=C(O)COc1cccc2c1OCCN2CCN(C(=O)c1ccccc1)c1ccc(Cl)cc1F` [Example 1-63], the IC50 [1] was 8.8 nM.
`Cc1ccc(C(=O)N(CCN2CCOc3c(OCC(=O)O)cccc32)c2ccc(Br)cc2)cc1` [Example 2-4] was tested, and the IC50 [1] was 27 nM.
For `O=C(O)COc1cccc2c1OCCN2CCN(C(=O)C1=CCCCC1)c1ccc(Br)cc1` [Example 2-27], the IC50 [1] was 55 nM.
